Patent US7022733B2, “Substituted 2-phenyl benzofurans as estrogenic agents” (Wyeth, priority 2001, dated 2006)

Assays:
[1] = system: metallothionein-II mRNA in Saos-2 cells; assay: Regulation of metallothionein-II mRNA in Saos-2 cells; type: cell-based; settings: Homo sapiens

Row | melting point [°C] | SMILES | fold induction at 1 µM [1]
1 | – | Oc1ccc(-c2cc3cc(O)ccc3o2)c(-c2ccccc2)c1 [Example 103, 2-(5-Hydroxy-biphenyl-2-yl)-benzofuran-5-ol] | 9
2 | 337 to 339 | Oc1ccc(-c2cc3cc(O)cc(CBr)c3o2)cc1 [Example 4, 7-Bromomethyl-2-(4-hydroxy-phenyl)-benzofuran-5-ol] | –
